In paper PMC10073126, “Levosimendan inhibits disulfide tau oligomerization and ameliorates tau pathology in Tau^P301L-BiFC mice” (Experimental & Molecular Medicine, 2023):

Legend:
[1] = system: Tau-BiFC cells; experiment: Flow cytometry analysis of tau-BiFC cells; assay type: cell-based, human; details: for P1: intact cell population out of total cells: 24 h; for Median BiFC fluorescence intensity of BiFC-responding cells: BiFC^ON control […] ± 62, basal 332 ± 110
Procedure: After 24 h, BiFC cells were collected and subjected to flow cytometry analysis using a BD FACSLyric^TM cytometer (BD Biosciences). A total of 50,000 events were acquired per sample. All samples were gated using the same gating tree and gate positions: side scatter area (SSC-A) vs. forward scatter area (FSC-A) for viable and singlet cell populations. BiFC fluorescence was excited by a 488 nm wave laser and collected through a 527/32 bandpass filter.

[2] = target: T1, tauK18 (Homo sapiens, UniProt P10636); experiment: TauK18 oligomerization assay in vitro (SDS-PAGE); assay type: biochemical; details: 5 h, nonreducing SDS-PAGE, DMSO control 50 ± 1.1%
T1 construct: under in vitro conditions using a purified tauK18 fragment; 6xHis; made in house; host or cells: E. coli BL21 (DE3)
T1 sequence (P10636 561-685 limits assumed): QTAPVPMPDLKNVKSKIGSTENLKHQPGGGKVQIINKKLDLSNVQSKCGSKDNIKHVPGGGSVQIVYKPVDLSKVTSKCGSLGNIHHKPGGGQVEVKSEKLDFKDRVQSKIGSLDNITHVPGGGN
Procedure: To induce tau oligomerization, tauK18 (0.5 mg/mL dissolved in PBS, pH 7.4) was incubated with each drug in the presence of DTT (100 μM) and heparin (0.1 mg/mL) at RT for 5 h with vigorous shaking. Then, tau oligomers were separated on 4–20% SDS‒PAGE gels under reducing and nonreducing conditions and visualized by Coomassie blue staining.

[3] = target: T1, tauK18; experiment: In vitro tau disaggregation assay (thioflavin S); assay type: biochemical; details: preformed tauK18 aggregates, 4 days; read-out: EC50, tau disaggregation (ThS)
Procedure: To evaluate the inhibitory effect of drugs on tau aggregation, tauK18 protein (0.5 mg/mL) was incubated with each drug at various concentrations in the presence of DTT (100 μM) and heparin (0.1 mg/mL) at 37 °C for 5 days with vigorous shaking (220 rpm). For the tau disaggregation assay, the preformed aggregation mixture of tauK18 was incubated with each drug at 37 °C for 4 days with vigorous shaking (220 rpm). On the final day of incubation, the level of β-sheet aggregates was evaluated by thioflavin S (ThS) assay. For the ThS assay, 5 μL of each mixture was transferred to a black 384-well plate with 45 μL of PBS containing 10 μM ThS. ThS fluorescence (λex = 430 nm, and λem = 500 nm) was measured by using a Flexstation2 spectrophotometer (Molecular Devices).

[4] = system: Tau^P301L-BiFC mice; experiment: Novel object recognition test; assay type: in vivo, mouse; details: 5 mg/kg i.p., three times a week, 4 months; vehicle TG 0.49, WT 0.74
Procedure: (§1) For drug administration, LMTM and levosimendan were dissolved in PBS containing 40% polyethylene glycol (PEG; Sigma). Nine-month-old Tau^P301L-BiFC mice were intraperitoneally administered each drug for 4 months, three times a week, at a dosage of 5 mg/kg (n = 11 per group). Vehicle-treated Tau^P301L-BiFC mice and age-matched wild-type mice were used as control groups. Behavioral assessments were conducted as described below for one month from the end of drug administration. All mice were sacrificed at the age of 14 months for pathological analysis.
The novel object recognition test was performed as described previously. Briefly, for habituation, mice (n = 9 per group) were individually placed in the center of an open field arena (40 × 40 cm) and could freely explore for 15 min. The next day, in the training trial (familiarization phase), the mice could explore two identical objects in the open field for 10 min. […] The exploration time for the familiar (old) or the new (novel) object during the recognition phase was recorded using a Noldus EthoVision XT video tracking system. Memory was operationally defined by the recognition index calculated by dividing the time an animal spent exploring the novel object or old object by the total time spent exploring objects in the testing period. The exploration time was measured when the mouse pointed toward the object in the vicinity of the object.

[5] = system: Tau^P301L-BiFC mice; experiment: Y-maze test; assay type: in vivo, mouse; details: 5 mg/kg i.p., three times a week, 4 months; vehicle TG 52.8 ± 2.6%
Procedure: as §1
Mice (n = 11 per group) were tested for spontaneous alternation behavior in a Y-shaped maze (60 cm in length of each arm, 20 cm in depth) using a standard protocol. Spontaneous alternation for 8 min was calculated as the proportion of alternations. Alteration (%) was defined as consecutive entries in three different arms (ABCs) divided by the number of possible alterations (total arm entries minus 2)[43].

[6] = system: Tau^P301L-BiFC mice; experiment: BiFC fluorescence imaging of brain tissue sections; assay type: in vivo, mouse; details: 5 mg/kg i.p., 4 months; for Tau-BiFC intensity in the hippocampus compared to vehicle-treated group: hippocampal CA1; for Tau-BiFC intensity in the cortex compared to vehicle-treated group: somatosensory cortex layer V
Procedure: as §1
Brain tissue sections (n = 8 per group) were mounted onto slides. To reduce autofluorescence, brain tissue sections were stained with Sudan Black B solution (70% ethanol containing 0.05% Sudan Black B) for 10 min, washed three times with PBS containing 0.1% Triton X-100 (Sigma), and then washed with distilled water. For counterstaining of nuclei, brain tissues were stained with Hoechst (0.5 μg/mL) for 30 min. BiFC fluorescence (λex = 460–490 nm and λem = 500–550 nm) images were acquired using Axio Scan. Z1 (ZEISS). For quantitative analysis, the mean BiFC fluorescence intensity was measured in the somatosensory cortex (layer V) and hippocampal CA1 from AP;−1.82. To normalize the background fluorescence between the brain samples, the habenular region was used as an internal control. Using ImageJ software (NIH), the region of interest was masked, and the fluorescence intensity value was calculated. Data are shown as the average and standard deviation of the mean fluorescence intensities of brain images from six to eight animals.

[7] = Cell viability of tau-BiFC cells (number of nuclei); assay type: cell-based, human; details: human, HEK293 Tau-BiFC cells, 48 h of treatment
Procedure: HEK293 Tau-BiFC cells were maintained in Dulbecco’s modified Eagle medium (DMEM) supplemented with 10% fetal bovine serum (FBS), 100 units/mL penicillin, 100 µg/mL streptomycin and 100 µg/mL Geneticin (G418) in a humidified atmosphere containing 5% CO2 at 37 °C. Tau-BiFC cells were activated by treatment with FK (30 μM) or tauK18^P301L (5 μg/mL).
For screening of FDA-approved & Passed Phase I Drug Library, tau-BiFC cells were plated on µ-clear 384-well plates. The next day, the cells were cotreated with forskolin and 1,018 library compounds at a concentration of 10 µM. MB and LMTM (3 µM) were used as positive controls. After 46 h, nuclei were counterstained with Hoechst (Invitrogen). BiFC (λex = 460–490 nm and λem = 500–550 nm) and Hoechst (λex = 355–385 nm and λem = 430–500 nm) fluorescence images were acquired automatically by using Operetta® (PerkinElmer). BiFC fluorescence intensity and the number of nuclei were quantified using Harmony 3.1 software (PerkinElmer). Integrated tau-BiFC intensity represents the area of selected cell X mean fluorescence intensity. The means and standard deviations (S.D.) of BiFC fluorescence intensities and the number of nuclei were plotted using GraphPad Prism.

CN(C)c1ccc2c(c1)Sc1cc(N(C)C)ccc1N2.CS(=O)(=O)O.CS(=O)(=O)O [LMTM, leucomethylene blue mesylate]
P1: intact cell population out of total cells ([1]; drug 5 μM with tauK18^P301L): 14.5%
Median BiFC fluorescence intensity of BiFC-responding cells ([1]; drug 5 μM with tauK18^P301L): 596 ± 57
Level of disulfide-linked tau oligomers (of total tau) ([2]; 100 μM): 79.2 ± 0.8%
EC50 [3]: 3.4 ± 0.2 µM
Recognition index (RI) for a novel object [4]: 0.59
Percent alternation [5]: 68.9 ± 3.5%
Tau-BiFC intensity in the hippocampus compared to vehicle-treated group [6]: 0.6 ± 0.1 fold
Tau-BiFC intensity in the cortex compared to vehicle-treated group [6]: 0.7 ± 0.2 fold

C[C@@H]1CC(=O)NN=C1c1ccc(NN=C(C#N)C#N)cc1 [Levosimendan]
GI50 at 48 h ([7]; Tau-BiFC^ON by forskolin (30 μM)): 124 ± 0.3 µM
GI50 at 48 h ([7]; Tau-BiFC^ON by tauK18^P301L (5 μg/mL)): 101.3 ± 0.4 µM
P1: intact cell population out of total cells ([1]; drug 15 μM with tauK18^P301L): 69.0%
Median BiFC fluorescence intensity of BiFC-responding cells ([1]; drug 15 μM with tauK18^P301L): 249 ± 59
Level of disulfide-linked tau oligomers (of total tau) ([2]; 10 μM): 15.0 ± 6.0%
Level of disulfide-linked tau oligomers (of total tau) ([2]; 30 μM): 15.7 ± 7.8%
Level of disulfide-linked tau oligomers (of total tau) ([2]; 100 μM): 12.3 ± 15.0%
EC50 [3]: 3.7 ± 0.2 µM
Recognition index (RI) for a novel object [4]: 0.69
Percent alternation [5]: 70.4 ± 4.2%
Tau-BiFC intensity in the hippocampus compared to vehicle-treated group [6]: 0.4 ± 0.2 fold
Tau-BiFC intensity in the cortex compared to vehicle-treated group [6]: 0.6 ± 01 fold
